≈ marks a conversion by molar mass, not a printed value.
Experiments:
E. coli = assay: Minimum inhibitory concentration (MIC) against microorganisms; assay type: cell-based; conditions: Escherichia coli; Organism: E. coli
Description: (§1) Minimum inhibitory concentrations (MICs) against microorganisms (e.g. S. Aureus, E. coli, S. faecalis, P. vulgaris, MRSA, Aspergillus niger, Candida albicans, Klebs. aerogenes, Ent. cloacae, Mycobacterium fortuitum or Aspergillus nidulans) for compounds of the invention may be measured using procedures such as those described in A. J. Drummond and R. D. Waigh “The development of microbiological methods for phytochemical screening” Recent Res. Devel. Phytochem. 4, 143-152 (2000).

Ent. cloacae = assay: as above; assay type: cell-based; conditions: Enterobacter cloacae; Organism: Ent. cloacae
Description: as §1

Klebs. aerogenes = assay: as above; assay type: cell-based; conditions: Klebsiella aerogenes; Organism: Klebs. aerogenes
Description: as §1

MRSA = assay: as above; assay type: cell-based; conditions: Staphylococcus aureus; Organism: MRSA
Description: as §1

P. vulgaris = assay: as above; assay type: cell-based; conditions: Proteus vulgaris; Organism: P. vulgaris
Description: as §1

S. aureus = assay: as above; assay type: cell-based; conditions: Staphylococcus aureus; Organism: S. aureus
Description: as §1

S. faecalis = assay: as above; assay type: cell-based; conditions: Enterococcus faecalis; Organism: S. faecalis
Description: as §1

[1] = system: NFκB protein-DNA complexes; assay: NFκB DNA-binding assay (gel shift) with macrophage nuclear extracts; assay type: biochemical, Murine; conditions: 1 μL of a 1 mM solution, final volume 10 μL; nuclear protein from macrophages exposed to LPS
Procedure: Murine macrophages (obtained and cultured as described in Cell. Signal. 11(7), 491 (1999), hereinafter referred to as “Reference 1”, the disclosures of which document are hereby incorporated by reference) were exposed to vehicle (see Reference 1) or 1 μg/mL lipopolysaccharide (LPS; the active component of gram-negative endotoxin and a strong activator of the Nuclear Factor kappa B (NFκB) pathway; the particular LPS being obtained from Salmonella minnesota) for 1 hour and nuclear extracts prepared by standard procedures (see Brit. J. Pharmacol. 134, 393 (2001), hereinafter referred to as “Reference 2”, the disclosures of which document are hereby incorporated by reference).
Aliquots of compounds (1 μL of a 1 mM solution) were incubated with 1 μL (0.035 pmol) of a ^32P-labelled 20 bp double-stranded DNA oligonucleotide (representing the consensus binding sequence for NFκB proteins (see Reference 2 and Brit. J. Pharmacol. 134, 1629-1638 (2001), the disclosures of which latter document are hereby incorporated by reference)) for 30 min at room temperature. […] The formation of NFκB protein-DNA complexes and potential inhibition of complex formation in the presence of the above compounds was detected by autoradiography. […]

Aspergillus nidulans = assay: Minimum inhibitory concentration (MIC) against microorganisms; assay type: cell-based; conditions: Organism: Aspergillus nidulans
Description: as §1

Aspergillus niger = assay: as above; assay type: cell-based; conditions: Organism: Aspergillus niger
Description: as §1

Candida albicans = assay: as above; assay type: cell-based; conditions: Organism: Candida albicans
Description: as §1

Mycobacterium fortuitum = assay: as above; assay type: cell-based; conditions: Mycolicibacterium fortuitum; Organism: Mycobacterium fortuitum
Description: as §1

[2] = system: double-stranded DNA decamer CGACTAGTCG (SEQ ID NO:3); assay: Capillary electrophoresis ligand-DNA binding study; conditions: drug to DNA ratio up to 4:1
Description: (§2) Typically, ligand binding results in a change in migration time of the DNA and sometimes a change in peak shape.
(§3) The following are shown in FIGS. 1-6: • (a) the experimental conditions, including the DNA sequence(s); • (b) the result of sequential addition of ligand; and • (c) the structure of the ligand being investigated. Key to FIGS. 1 to 6: • r0=electropherogram in the absence of drug • rX=(where X is 0.5, 1, 2, 3 or 4) electropherogram in the presence of drug, where the drug:DNA ratio (in terms of concentration) is X:1
This ratio corresponds to the binding ratio.

DNA = conditions: binding to DNA; read-out: dissociation constants; cited from earlier work
[3] = system: double-stranded DNA oligonucleotide AAATTATATTAT (SEQ ID NO:1); assay: Capillary electrophoresis ligand-DNA binding study; conditions: AAATTATATTAT versus GGGCCGCGCCGC
Description: Capillary electrophoresis was used to study of ligand-DNA binding (see: (i) Hamdan, I. I.; Skellern, G. G.; and Waigh, R. D. “Separation of pd(GC)12 from pd(AT)12 by free solution capillary electrophoresis”, J. Cromatogr. A. 806, 165-168 (1998); (ii) Hamdan, I. I.; Skellern, G. G.; and Waigh, R. D. “Use of capillary electrophoresis in the study of ligand-DNA interactions”, Nucleic Acids Research 26, 3053-3058 (1998); (iii) Hamdan, I. I.; Skellern, G. G.; and Waigh, R. D. “Ligand binding to oligonucleotides” Methods in Molecular Biology, Vol. 163, “Capillary Electrophoresis of Nucleic acids”, Vol 2, pages 379-391, K. R. Mitchelson and J. Cheng Eds., Humana Press, New Jersey, (2000)).
as §2, §3
This ratio corresponds to the binding ratio. […]

Row | MIC (E. coli) | MIC (Ent. cloacae) | MIC (Klebs. aerogenes) | MIC (MRSA) | MIC (P. vulgaris) | MIC (S. aureus) | MIC (S. faecalis) | effect on LPS-stimulated NFκB-DNA binding activity [1] | MIC (Aspergillus nidulans) | MIC (Aspergillus niger) | MIC (Candida albicans) | MIC (Mycobacterium fortuitum) | affinity for the sequence [2] | Compound | Kd (DNA) | AT selectivity [3]
1 | 2 µM (≈ 0.731 µg/mL) | 4 µM (≈ 1.46 µg/mL) | 32.3 µM (≈ 11.8 µg/mL) | 16.1 µM (≈ 5.88 µg/mL) | 8.1 µM (≈ 2.96 µg/mL) | 0.49 µM (≈ 0.179 µg/mL) | 0.49 µM (≈ 0.179 µg/mL) | – | – | – | – | – | – | CC1(C)S[C@@H]2[C@H](NC(=O)[C@H](N)c3ccc(O)cc3)C(=O)N2[C@H]1C(=O)O [Amoxicillin, reference compound] | – | –
2 | – | – | – | – | – | – | – | little effect | – | – | – | – | – | CC(C)n1cc(NC(=O)c2cc(NC=O)cn2C)cc1C(=O)Nc1cc(C(=O)NCCCN(C)C)n(C)c1 [Example 2, N-[5-({[5-({[3-(Dimethylamino)propyl]amino}carbonyl)-1-methyl-1H-pyrrol-3-yl]amino}carbonyl)-1-isopropyl-1H-pyrrol-3-yl]-4-(formylamino)-1-methyl-1H-pyrrole-2-carboxamide] | – | –
3 | > 152 µM | 76.2 µM (≈ 41.4 µg/mL) | 76.2 µM (≈ 41.4 µg/mL) | 38.1 µM (≈ 20.7 µg/mL) | 152 µM (≈ 82.6 µg/mL) | 4.7 µM (≈ 2.55 µg/mL) | 9.5 µM (≈ 5.16 µg/mL) | – | 38.1 µM (≈ 20.7 µg/mL) | 76.1 µM (≈ 41.3 µg/mL) | 76.1 µM (≈ 41.3 µg/mL) | 19 µM (≈ 10.3 µg/mL) | – | CC(C)c1sc(NC(=O)c2cc(NC(=O)c3cc(NC=O)cn3C)cn2C)nc1C(=O)NCCCN(C)C [Example 3, N-[3-(Dimethylamino)propyl]-2-({[4-({[4-(formylamino)-1-methyl-1H-pyrrol-2-yl]carbonyl}amino)-1-methyl-1H-pyrrol-2-yl]carbonyl}amino)-5-isopropyl-1,3-thiazole-4-carboxamide] | – | –
4 | > 152 µM | 9.5 µM (≈ 5.16 µg/mL) | 38.1 µM (≈ 20.7 µg/mL) | 19.1 µM (≈ 10.4 µg/mL) | 152 µM (≈ 82.7 µg/mL) | 4.8 µM (≈ 2.6 µg/mL) | 9.5 µM (≈ 5.16 µg/mL) | – | 9.5 µM (≈ 5.16 µg/mL) | 38.1 µM (≈ 20.7 µg/mL) | 38.1 µM (≈ 20.7 µg/mL) | 19 µM (≈ 10.3 µg/mL) | – | CC(C)c1sc(NC(=O)c2cc(NC=O)cn2C)nc1C(=O)Nc1cc(C(=O)NCCCN(C)C)n(C)c1 [Example 7, N-[5-({[3-(Dimethylamino)propyl]amino}carbonyl)-1-methyl-1H-pyrrol-3-yl]-2-({[4-(formylamino)-1-methyl-1H-pyrrol-2-yl]carbonyl}amino)-5-isopropyl-1,3-thiazole-4-carboxamide] | – | –
5 | – | – | – | – | – | – | – | – | – | – | – | – | no affinity | Cn1cc(NC(=O)c2cc(NC(=O)c3cc(NC=O)cn3C)cn2C)cc1C(=O)NCCC(=N)N [distamycin, reference compound] | ~10 µM | –

The next lines start with the compound.

Row | Compound | MIC (E. coli) | MIC (Ent. cloacae) | MIC (Klebs. aerogenes) | MIC (MRSA) | MIC (P. vulgaris) | MIC (S. aureus) | MIC (S. faecalis) | effect on LPS-stimulated NFκB-DNA binding activity [1] | MIC (Aspergillus nidulans) | MIC (Aspergillus niger) | MIC (Candida albicans) | MIC (Mycobacterium fortuitum) | affinity for the sequence [2] | Kd (DNA) | AT selectivity [3]
6 | CC(C)CCn1cc(NC(=O)c2ccc3[nH]c(C(=O)Nc4cc(C(=O)Nc5cc(C(=O)NCCCN6CCOCC6)n(C)c5)n(CCC(C)C)c4)cc3c2)cc1C(=O)Nc1cc(C(=O)NCCCN2CCOCC2)n(C)c1 [Example 17, N^2,N^5-Bis[1-isopentyl-5-({[1-methyl-5-({[3-(4-morpholinyl)propyl]amino}-carbonyl)-1H-pyrrol-3-yl]amino}carbonyl)-1H-pyrrol-3-yl]-1H-indole-2,5-dicarboxamide] | > 77.7 µM | > 77.7 µM | 38.9 µM (≈ 41.2 µg/mL) | > 77.7 µM | 77.7 µM (≈ 82.2 µg/mL) | 19.4 µM (≈ 20.5 µg/mL) | 77.7 µM (≈ 82.2 µg/mL) | – | 77.7 µM (≈ 82.2 µg/mL) | > 77.7 µM | > 77.7 µM | > 77.7 µM | – | – | –
7 | CC(C)c1sc(NC(=O)c2cc(NC(=O)c3ccc4c(c3)CCc3cc(C(=O)Nc5cc(C(=O)Nc6nc(C(=O)NCCCN(C)C)c(C(C)C)s6)n(C)c5)ccc3-4)cn2C)nc1C(=O)NCCCN(C)C [Example 28, N^2,N^7-Bis[5-({[4-({[3-(dimethylamino)propyl]amino}carbonyl)-5-isopropyl-1,3-thiazol-2-yl]amino}carbonyl)-1-methyl-1H-pyrrol-3-yl]-9,10-dihydro-2,7-phenanthrenedicarboxamide] | > 80.3 µM | > 80.3 µM | > 80.3 µM | 10 µM (≈ 10.2 µg/mL) | > 80.3 µM | 80 µM (≈ 81.4 µg/mL) | 10 µM (≈ 10.2 µg/mL) | – | 20.1 µM (≈ 20.4 µg/mL) | > 80.3 µM | > 80.3 µM | 40.1 µM (≈ 40.8 µg/mL) | – | – | –
8 | OC(Cn1cncn1)(Cn1cncn1)c1ccc(F)cc1F [Fluconazole, reference compound] | – | – | – | – | – | – | – | – | 40.8 µM (≈ 12.5 µg/mL) | > 327 µM | 81.6 µM (≈ 25 µg/mL) | – | – | – | –
9 | [H]/N=C(/N)N[C@H]1[C@H](O)[C@@H](O)[C@H](O[C@@H]2O[C@@H](C)[C@](O)(C=O)[C@H]2O[C@@H]2O[C@@H](CO)[C@H](O)[C@@H](O)[C@@H]2NC)[C@@H](N/C(N)=N\[H])[C@@H]1O [Streptomycin, reference compound] | – | – | – | – | – | – | – | – | – | – | – | 21.5 µM (≈ 12.5 µg/mL) | – | – | –
10 | Cn1cc(NC(=O)c2cc(NC(=O)CN=C(N)N)cn2C)cc1C(=O)NCCC(=N)N [netropsin] | – | – | – | – | – | – | – | – | – | – | – | – | – | ~10 µM | AT selective

Reference: patent publication US7700765B2, “DNA minor groove binding compounds” (University of Strathclyde, priority 2001, dated 2010)
